Assay results taken from PMC12162926, “A novel strategy for identifying hepatotoxic constituents in traditional Chinese medicine using dose-normalized intracellular accumulation as a cytotoxicity indicator: a case study of Jinlingzi San” (Frontiers in Pharmacology, 2025).

Assays:
L-02 cells [1] = assay: Intracellular identification of L-02 cell-uptake components by LC–MS/MS; format: in vitro ADME, human; details: L-02 exposed to JLZS-containing medium 6.5 mg/mL for 2 h
Protocol: The powder of 25 g FT and 25 g RC was evenly blended and then refluxed twice with six-fold 50% ethanol (1: 6, w/v) for 1 h; the collected filtrate was evaporated to dryness and further dissolved in DMSO, after filtering using the 0.22-µm cellulose acetate membrane. JLZS-containing medium (6.5 mg/mL) was freshly prepared by diluting the filtrate with RPMI-1640. Likewise, RC-containing medium was freshly prepared in the same method independently.
L-02 cells were seeded on 9-cm-diameter cell culture plates; after ∼80% confluent, the cultured cells were incubated with 6.5 mg/mL JLZS-containing medium. After 2-h exposure, L-02 cells were quickly washed free of culture medium with cold PBS (−) twice and harvested with 1 mL of 0.25% trypsin-EDTA for cell isolation. The cell suspension (∼5 × 10^6 cells) was spun down, and the cells were further washed twice in cold PBS (−). Then, 200 µL of methanol was used to lyse the collected cells with vortex mixing for 1 min. The cell lysates were centrifuged at 12,000 rpm for 4 min, and 10 μL of the centrifugal supernatant was injected into the LC–MS/MS system for identified analysis.
The LC–MS/MS system consisted of a Thermo TSQ Quantum Ultra triple-quadrupole mass spectrometer equipped with an electrospray ionization source (San Jose, CA, United States). LCquan quantitation software (version 2.5.6, Thermo Fisher Scientific, Waltham, MA, USA) was used to control the LC–MS/MS system for data acquisition and analysis. Analytes and IS separation were conducted using a Waters XTerra® MS C18 column (3.0 mm × 50 mm, 5 µm) maintained at 20 °C. By injecting 5 µL samples with a flow rate of 0.2 mL/min, chromatographic separation was achieved using a mobile phase of 0.1% formic acid–water (A) and methanol (B) via gradient elution, 0.0–2.0 min, 35%–50% B; 2.0–2.1 min, 50%–55% B; 2.1–2.5 min, 55%–60% B; 2.5–14.0 min, 60% B. The analytes and IS were detected in the ESI source by polarity switching from positive for 0.0–8.0 min to negative-ion modes for 8.5–14.0 min in a single run with multiple reaction monitoring (MRM).

L-02 cells [2] = assay: Intracellular accumulation in L-02 cells by LC–MS/MS; format: in vitro ADME, human; details: L-02, JLZS extracts 6.5 mg/mL, n = 6
L-02 cells [3] = assay: Cell growth inhibition assay (CCK-8); format: cell-based, human; details: L-02, 24 h exposure, single compounds
[4] = Stability of analytes in cell lysates (LC–MS/MS method validation); format: physicochemical; details: n=3; for Post-preparation stability RE%: 4 ℃, 24 h at autosampler; for Short-term stability RE%: 12 h at room temperature; for Long-term stability RE%: -80℃ for a month; for Freeze-thaw stability RE%: three freeze-thaw
Protocol: The stability of seven analytes including short-term stability (12 h at room temperature), post-preparation stability at 4 ℃ (24 h at autosampler), freeze-thaw stability (three freeze-thaw stability) and long-term stability (-80℃ for a month) was tested by analyzing three replicates at low and high QC levels during various sample storage and handling process.

[5] = set-up: method as in Gu et al., 2021; details: pharmacokinetic level, JLZS vs single herb; ref Gu et al., 2021; cited from earlier work

With `COc1cc2c(cc1OC)-c1c(C)c3ccc(OC)c(OC)c3c[n+]1CC2` [DHC, dehydrocorydaline] the “detection in cell lysates” value (L-02 cells [1]) was “found in the cell lysates”, the Intracellular concentration (L-02 cells [2]; time 0.25 h) was 15.2 ± 2.9 ng/mL and the Intracellular concentration (L-02 cells [2]; time 0.5 h) was 26.1 ± 3.0 ng/mL. The Intracellular concentration (L-02 cells [2]; time 1 h) was 53.1 ± 4.0 ng/mL, the Intracellular concentration (L-02 cells [2]; time 1.5 h) was 71.9 ± 5.5 ng/mL and the Intracellular concentration (L-02 cells [2]; time 2 h) was 74.8 ± 6.2 ng/mL. The Intracellular concentration (L-02 cells [2]; time 3 h) was 82.0 ± 7.5 ng/mL, the Intracellular concentration (L-02 cells [2]; time 5 h) was 122.0 ± 8.7 ng/mL and the Intracellular concentration (L-02 cells [2]; time 8 h) was 98.2 ± 9.6 ng/mL. The “IC50 (cell viability)” value (L-02 cells [3]) was “not detected IC50 values within the set concentration range”, the “Post-preparation stability RE%” value ([4]; high QC level) was 6.6% and the “Post-preparation stability RE%” value ([4]; low QC level) was -0.2%. The “Short-term stability RE%” value ([4]; high QC level) was 8.8%, the “Short-term stability RE%” value ([4]; low QC level) was -2.4% and the “Long-term stability RE%” value ([4]; high QC level) was 1.3%. For the same compound, the “Long-term stability RE%” value ([4]; low QC level) was 2.3%, the “Freeze-thaw stability RE%” value ([4]; high QC level) was 0.4% and the “Freeze-thaw stability RE%” value ([4]; low QC level) was -0.6%. For the same compound, the “elimination in the JLZS group compared with the single-herb group” value [5] was “decreased significantly”.
For `COc1cc2c(cc1OC)-c1cc3ccc(OC)c(OC)c3c[n+]1CC2` [PAL, palmatine], the “detection in cell lysates” value (L-02 cells [1]) was “found in the cell lysates”, the Intracellular concentration (L-02 cells [2]; time 0.25 h) was 11.6 ± 1.8 ng/mL and the Intracellular concentration (L-02 cells [2]; time 0.5 h) was 15.6 ± 2.7 ng/mL. The Intracellular concentration (L-02 cells [2]; time 1 h) was 29.6 ± 7.9 ng/mL, the Intracellular concentration (L-02 cells [2]; time 1.5 h) was 40.2 ± 10.1 ng/mL and the Intracellular concentration (L-02 cells [2]; time 2 h) was 49.4 ± 19.9 ng/mL. The Intracellular concentration (L-02 cells [2]; time 3 h) was 65.7 ± 12.4 ng/mL, the Intracellular concentration (L-02 cells [2]; time 5 h) was 96.9 ± 10.7 ng/mL and the Intracellular concentration (L-02 cells [2]; time 8 h) was 99.5 ± 24.3 ng/mL. For the same compound, the “IC50 (cell viability)” value (L-02 cells [3]) was “not detected IC50 values within the set concentration range”, the “Post-preparation stability RE%” value ([4]; high QC level) was 6.8% and the “Post-preparation stability RE%” value ([4]; low QC level) was -1.3%. The “Short-term stability RE%” value ([4]; high QC level) was 2.5%, the “Short-term stability RE%” value ([4]; low QC level) was 6.5% and the “Long-term stability RE%” value ([4]; high QC level) was 0.0%. For the same compound, the “Long-term stability RE%” value ([4]; low QC level) was 6.4%, the “Freeze-thaw stability RE%” value ([4]; high QC level) was 6.5% and the “Freeze-thaw stability RE%” value ([4]; low QC level) was -3.5%. The “elimination in the JLZS group compared with the single-herb group” value [5] was “decreased significantly”.
In the case of `c1cc2c(c3c1CC1c4cc5c(cc4CCN1C3)OCO5)OCO2` (stereo not drawn) [THC, tetrahydrocoptisine], the “detection in cell lysates” value (L-02 cells [1]) is reported as “found in the cell lysates”, the Intracellular concentration (L-02 cells [2]; time 0.25 h) is reported as 15.8 ± 3.0 ng/mL and the Intracellular concentration (L-02 cells [2]; time 0.5 h) is reported as 13.3 ± 0.5 ng/mL. For the same compound, the Intracellular concentration (L-02 cells [2]; time 1 h) was 15.0 ± 2.7 ng/mL, the Intracellular concentration (L-02 cells [2]; time 1.5 h) was 17.7 ± 3.6 ng/mL and the Intracellular concentration (L-02 cells [2]; time 2 h) was 20.3 ± 5.4 ng/mL. It also gave an Intracellular concentration (L-02 cells [2]; time 3 h) of 15.8 ± 2.9 ng/mL, an Intracellular concentration (L-02 cells [2]; time 5 h) of 15.1 ± 1.4 ng/mL and an Intracellular concentration (L-02 cells [2]; time 8 h) of 13.3 ± 1.8 ng/mL. The “IC50 (cell viability)” value (L-02 cells [3]) was “not detected IC50 values within the set concentration range”, the “Post-preparation stability RE%” value ([4]; high QC level) was -0.9% and the “Post-preparation stability RE%” value ([4]; low QC level) was -0.6%. For the same compound, the “Short-term stability RE%” value ([4]; high QC level) was 4.6%, the “Short-term stability RE%” value ([4]; low QC level) was 3.4% and the “Long-term stability RE%” value ([4]; high QC level) was 1.2%. The “Long-term stability RE%” value ([4]; low QC level) was 5.3%, the “Freeze-thaw stability RE%” value ([4]; high QC level) was -1.4% and the “Freeze-thaw stability RE%” value ([4]; low QC level) was -2.5%. For the same compound, the “elimination in the JLZS group compared with the single-herb group” value [5] was “decreased significantly”.
